Laboratory results reported in patent EP3381906A1, “COMPOUNDS FOR USE AS HEPARANASE INHIBITORS” (Leadiant Biosciences SA, priority 2017, dated 2018).
pEC50: −log10 of the molar value.

Key:
[1] = system: MMP-9; test: Real-Time Quantitative PCR of pro-angiogenic genes in HT1080 cells; type: cell-based, human; conditions: 24 h, Conc 10.0 uM
Procedure: (§1) To evaluate the effect of heparanase inhibitors on the tumor transcription of genes encoding for proangiogenic factors, such as FGF1/2, VEGF, MMP-9, HSPE-1, the relative mRNA levels were analyzed by quantitative Real-Time Quantitative PCR. To perform the assay, HT1080 (human fibrosarcoma) cells were cultured in complete medium containing 10%FCS (fetal calf serum). Cells were plated in 24-well plates and treated at fixed concentration (i.e., highest non-toxic concentration) of test compounds. After 24 h, cells were detached, collected and total RNA extracted by RNeasy Mini Kit (QIAGEN). Following reverse transcription step, FGF1/2, VEGF, MMP-9, HSPE-1 mRNA levels, were quantified by qPCR using the advanced Universal SYBR Green Supermix (Bio Rad) and ABI PRISM 7900HT Thermal Cycler System (Perkin Elmer), according to the manufacturer's instructions. Appropriate no-RT and non-template controls were included in each 96-well PCR reaction, and dissociation analysis was performed at the end of each run to confirm the specificity of the reaction. Relative levels of RNA were calculated using the ddCt method. Standard curve and sample data were run in duplicate. In the Table a mean value is reported.

[2] = system: FGF-1; test: as above; type: cell-based, human; conditions: 24 h, Conc 10.0 uM
Procedure: as §1

[3] = system: VEGF; test: as above; type: cell-based, human; conditions: 24 h, Conc 10.0 uM
Procedure: as §1

[4] = system: FGF-2; test: as above; type: cell-based, human; conditions: 24 h, Conc 10.0 uM
Procedure: as §1

[5] = system: U87MG; test: Matrigel cell invasion assay; type: cell-based, human; conditions: Homo sapiens, U-87 MG, Conc. 10 µM
[6] = system: HT1080 (human fibrosarcoma); test: Cell adhesion assay on matrigel coated wells; type: cell-based; conditions: HT1080, Conc. 10 µM; percent of adhesion with respect to the control (100%)
Procedure: Cell surface, non-integrin molecules such as heparan sulfate proteoglycans (HSPGs) may be involved in the regulation of early adhesive stages of cell-ECM interactions. A cell adhesion assay has been employed to determine if the newly designed heparanase inhibitors were able to interfere with adhesion properties of cancer cells.
HT1080 (human fibrosarcoma) cells were treated for 18-20 h with test compounds in complete medium supplemented with 10% FCS. Then cells were collected, washed in complete medium, and added to matrigel coated wells in triplicate, at previously identified optimal seeding density, and incubated at 37 °C in complete medium for times ranging from 15 minutes to 4h, according to the cell line. After incubation, the wells were washed three times with serum-free medium and the remaining firmly attached cells were stained with crystal-violet 0.1%. Optical density was measured at 560 nm by Victor 3 (Perkin-Elmer) plate analyzer. Each experiment was repeated three times.

[7] = system: HPSE-1; test: Real-Time Quantitative PCR of pro-angiogenic genes in HT1080 cells; type: cell-based, human; conditions: 24 h, Conc 10.0 uM
Procedure: To evaluate the effect of heparanase inhibitors on the tumor transcription of genes encoding for proangiogenic factors, such as FGF1/2, VEGF, MMP-9, HSPE-1, the relative mRNA levels were analyzed by quantitative Real-Time Quantitative PCR. To perform the assay, HT1080 (human fibrosarcoma) cells were cultured in complete medium containing 10%FCS (fetal calf serum). Cells were plated in 24-well plates and treated at fixed concentration (i.e., highest non-toxic concentration) of test compounds. After 24 h, cells were detached, collected and total RNA extracted by RNeasy Mini Kit (QIAGEN). Following reverse transcription step, FGF1/2, VEGF, MMP-9, HSPE-1 mRNA levels, were quantified by qPCR using the advanced Universal SYBR Green Supermix (Bio Rad) and ABI PRISM 7900HT Thermal Cycler System (Perkin Elmer), according to the manufacturer's instructions. […] Relative levels of RNA were calculated using the ddCt method. Standard curve and sample data were run in duplicate.

[8] = system: U2OS (human osteosarcoma); test: SRB Cell Cytotoxicity Assay; type: cell-based; conditions: treated for 72h, read-out: Concentration of test compounds at which the cell growth is inhibited by 50 % U2OS
Description: (§2) SRB Cell Cytotoxicity Assay is an assay based upon the quantitative staining of cellular proteins by sulforhodamine B (SRB). This assay can be used for high-throughput drug screening (Vichai & Kirkitara, Nature Protocol. 2006, 1, 112). Sulforhodamine B is an anionic aminoxanthene dye that forms an electrostatic complex with the basic amino acid residues of proteins under moderately acid conditions, which provides a sensitive linear response.
(§3) To assess a putative antiproliferative activity of the selected compounds, HT1080 (human fibrosarcoma), U87MG (human glioblastoma astrocytoma) and U2OS (human osteosarcoma) cell lines were treated for 72h, in triplicate, with increasing concentrations of heparanase inhibitors. Inhibition of cell proliferation was then measured by the classical colorimetric SRB Cell Cytotoxicity assay. Absorbance was measured by spectrophotometer at a wavelength of 510 nm and cell proliferation was determined as percent with respect to control cells (cells treated with the vehicle alone). EC50 values were then determined by GraphPad Prism.

[9] = system: U87MG (human glioblastoma astrocytoma); test: SRB Cell Cytotoxicity Assay; type: cell-based; conditions: U-87 MG, treated for 72h, read-out: Concentration of test compounds at which the cell growth is inhibited by 50 % U87MG
Description: as §2, §3

[10] = system: HT1080 (human fibrosarcoma); test: SRB Cell Cytotoxicity Assay; type: cell-based; conditions: HT-1080, HT1080, treated for 72h, read-out: Concentration of test compounds at which the cell growth is inhibited by 50 % HT1080
Description: as §2, §3

For `COc1cc(N=Nc2cc(S(=O)(=O)O)cc3cc(S(=O)(=O)O)cc(O)c23)c(C)cc1NC(=O)Nc1cc(C)c(N=Nc2cc(S(=O)(=O)O)cc3cc(S(=O)(=O)O)cc(O)c23)cc1OC` [SST0597], the “Gene Expression (% mRNA vs. control) MMP-9” value [1] was “∼ 69%”, the “Gene Expression (% mRNA vs. control) FGF-1” value [2] was “∼ 100%” and the “Gene Expression (% mRNA vs. control) VEGF” value [3] was “∼ 100%”. For the same compound, the “Gene Expression (% mRNA vs. control) FGF-2” value [4] was “∼ 82%”, the inhibition at 10 µM [5] was less than 50% and the “Adhesion Assay (%) HT1080” value [6] was “∼ 85%”. For the same compound, the “Gene Expression (% mRNA vs. control) HPSE-1” value [7] was “∼ 100%”, the pEC50 [8] was less than 5.00 and the pEC50 [9] was less than 5.00. The pEC50 [10] was less than 5.00.
